Ends that are not written are not given here.
Key:
Assay type in all cases: in vivo
prostate cancer (22Rv1) = assay: Prostate cancer subcutaneous allograft mouse model; details: 22Rv1 allograft mice
breast cancer (4T1) = assay: Breast cancer subcutaneous allograft mouse model; details: 4T1 allograft mice
ZDF diabetic rats = assay: Blood sugar in ZDF diabetic rats after 6 days of treatment; details: IV daily for 6 days; MOTS-c 1 mg per 400 gram rat
Experimental: FIG. 33 describes Day 6 fasting blood sugars. ZDF diabetic rats were followed until their blood sugar was […], at which point treatment was initiated with one of two doses of MOTS-c or insulin, given IV at 8 AM for 6 days. 6 rats per group were used. Fasting blood sugars were measured after 6-days. ANOVA and student t-tests were used for analysis and p-values.
FIG. 34 describes absolute change in blood glucose at Day 6. In the same experiment described in FIG. 33, absolute changes in blood glucose are shown.

Row | Substance | toxicity as reflected by body weight maintenance (prostate cancer (22Rv1)) | toxicity as reflected by body weight maintenance (breast cancer (4T1)) | absolute change in blood glucose at Day 6 (ZDF diabetic rats)
1 | MRWQEMGYIFYPRKLR [MOTS3, MRWQEMGYIFYPRKLR] | not toxic | not toxic | 
2 | insulin: insulin given IV daily for 6 days as comparator in ZDF diabetic rats |  |  | stabilize their blood sugar at levels similar to baseline
